The results in this text go back to patent US7419780B2, “Methods and assays for screening protein targets” (The Trustees of Columbia University in the City of New York, priority 2000, dated 2008).

Molecules are shown by their SMILES.

Holding throughout (assay type): cell-based, S. cerevisiae
Holding throughout (conditions): 1 uM small molecule, difference to activity without small molecule, average of two trials

Assay [1] addresses T1, LexA eDHFR / B42 (GSG)rGR2 (UniProt P06536+P0ABQ4, C656G/F620S).
T1 construct: rat Glucocorticoid Receptor (aa 524-795) with point mutations; expressed in transfected cells; host or cells: S. cerevisiae FY250
T1 sequence (P0ABQ4 1-159): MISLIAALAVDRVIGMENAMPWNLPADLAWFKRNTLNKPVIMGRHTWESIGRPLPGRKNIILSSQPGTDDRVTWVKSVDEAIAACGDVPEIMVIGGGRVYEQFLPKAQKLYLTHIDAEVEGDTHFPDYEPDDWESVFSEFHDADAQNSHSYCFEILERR
T1 sequence (P06536 524-795 F620S/C656G limits assumed): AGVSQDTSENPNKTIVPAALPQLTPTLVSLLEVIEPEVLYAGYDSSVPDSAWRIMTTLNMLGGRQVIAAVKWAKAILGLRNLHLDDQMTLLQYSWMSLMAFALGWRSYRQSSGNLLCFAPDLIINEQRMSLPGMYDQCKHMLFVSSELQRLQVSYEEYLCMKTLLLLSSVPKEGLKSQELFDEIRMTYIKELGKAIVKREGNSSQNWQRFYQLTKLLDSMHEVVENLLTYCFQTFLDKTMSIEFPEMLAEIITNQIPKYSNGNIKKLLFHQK
As to the kind of experiment: β-galactosidase activity assay, strain V494Y. The text has this:
(§1) Table III explains the components of each strain. Each strain was constructed from the parent yeast strain FY250 and also contains the pMW106 plasmid, which has the LacZ reporter gene that is turned on only in when the LexA DNA binding domain and the B42 activation are brought in tot he vicinity of each other. We use several different strains because we use DHFR from two different species, mDHFR is from murine, while eDHFR is from E. coli. We are asl oable to switch the small moleculebinding domains. For example, the strain containing LexA-eDHFR with B42-rGH2 is a different strain and behaves differently from the strain containing LexA-rGR2 with B42-eDHFR. We also put in short 6 amino acid linkers between the two domains of our protein chimeras and thus these are different strain as well.
(§2) The results in Table IV are averages of two separate trials. Each strain was examined with small molecules and without small molecules. The absolute activity is given as the β-galactisidase activity […]. The average β-galactosidse activity for a strain without small molecule (i.e. the negative control) was about 100 β-galactosidase units.

Assay [2] addresses T2, LexA mDHFR / B42 (GSG)rGR2 (UniProt P00375+P06536, C656G/F620S).
T2 construct: rat Glucocorticoid Receptor (aa 524-795) with point mutations; expressed in transfected cells; host or cells: S. cerevisiae FY250
T2 sequence (P00375 1-187): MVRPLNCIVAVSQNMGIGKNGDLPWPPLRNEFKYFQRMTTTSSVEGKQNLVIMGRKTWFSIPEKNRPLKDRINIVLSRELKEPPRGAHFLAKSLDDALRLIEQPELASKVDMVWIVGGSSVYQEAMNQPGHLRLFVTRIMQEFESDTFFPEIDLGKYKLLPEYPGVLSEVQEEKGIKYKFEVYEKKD
T2 sequence (P06536 524-795 F620S/C656G limits assumed): T1 sequence (P06536 524-795 F620S/C656G limits assumed)
As to the kind of experiment: β-galactosidase activity assay, strain V497Y.
Excerpt: as §1, §2

Assay [3] addresses T3, LexA (GSG)2mDHFR / B42 rGR2 (UniProt P00375+P06536, C656G/F620S).
T3 construct: rat Glucocorticoid Receptor (aa 524-795) with point mutations; expressed in transfected cells; host or cells: S. cerevisiae FY250
T3 sequence (P00375 1-187): T2 sequence (P00375 1-187)
T3 sequence (P06536 524-795 F620S/C656G limits assumed): T1 sequence (P06536 524-795 F620S/C656G limits assumed)
As to the kind of experiment: β-galactosidase activity assay, strain V502Y.
Excerpt: as §1, §2

Assay [4] addresses T4, LexA (GSG)2rGR2 / B42 (GSG)2mDHFR (UniProt P00375+P06536, C656G/F620S).
T4 construct: rat Glucocorticoid Receptor (aa 524-795) with point mutations; expressed in transfected cells; host or cells: S. cerevisiae FY250
T4 sequence (P06536 524-795 F620S/C656G limits assumed): T1 sequence (P06536 524-795 F620S/C656G limits assumed)
T4 sequence (P00375 1-187): T2 sequence (P00375 1-187)
Description: β-galactosidase activity assay, strain V512Y.
Excerpt: as §1, §2

Assay [5] concerns the target T5, LexA (GSG)2rGR2 / B42 mDHFR (UniProt P00375+P06536, C656G/F620S).
T5 construct: expressed in transfected cells; host or cells: S. cerevisiae FY250 with pMW106 lacZ reporter
T5 sequence (P06536 524-795 F620S/C656G limits assumed): T1 sequence (P06536 524-795 F620S/C656G limits assumed)
T5 sequence (P00375 1-187): T2 sequence (P00375 1-187)
As to the kind of experiment: β-galactosidase activity assay, strain V508Y.
Excerpt: as §1, §2

For assay [6], the target named is T6, LexA rGR2 / B42 (GSG)2mDHFR (UniProt P00375+P06536, C656G/F620S).
T6 construct: expressed in transfected cells; host or cells: S. cerevisiae FY250 with pMW106 lacZ reporter
T6 sequence (P06536 524-795 F620S/C656G limits assumed): T1 sequence (P06536 524-795 F620S/C656G limits assumed)
T6 sequence (P00375 1-187): T2 sequence (P00375 1-187)
Description: β-galactosidase activity assay, strain V511Y.
Excerpt: as §1, §2

A further assay deals with T7, LexA eDHFR / B42 rGR2 (UniProt P06536+P0ABQ4, C656G/F620S).
T7 construct: rat Glucocorticoid Receptor (aa 524-795) with point mutations; expressed in transfected cells; host or cells: S. cerevisiae FY250
T7 sequence (P0ABQ4 1-159): T1 sequence (P0ABQ4 1-159)
T7 sequence (P06536 524-795 F620S/C656G limits assumed): T1 sequence (P06536 524-795 F620S/C656G limits assumed)
As to the kind of experiment: β-galactosidase activity assay, strain V493Y.
Excerpt: as §1, §2

Assay [7] has as its target T8, LexA (GSG)2mDHFR / B42 gly6rGR2 (UniProt P00375+P06536, C656G/F620S).
T8 construct: expressed in transfected cells; host or cells: S. cerevisiae FY250 with pMW106 lacZ reporter
T8 sequence (P00375 1-187): T2 sequence (P00375 1-187)
T8 sequence (P06536 524-795 F620S/C656G limits assumed): T1 sequence (P06536 524-795 F620S/C656G limits assumed)
As to the kind of experiment: β-galactosidase activity assay, strain V503Y.
Excerpt: as §1, §2

For assay [8], the target named is T9, LexA (GSG)2eDHFR / B42 rGR2 (UniProt P06536+P0ABQ4, C656G/F620S).
T9 construct: rat Glucocorticoid Receptor (aa 524-795) with point mutations; expressed in transfected cells; host or cells: S. cerevisiae FY250
T9 sequence (P0ABQ4 1-159): T1 sequence (P0ABQ4 1-159)
T9 sequence (P06536 524-795 F620S/C656G limits assumed): T1 sequence (P06536 524-795 F620S/C656G limits assumed)
As to the kind of experiment: β-galactosidase activity assay, strain V498Y.
Excerpt: as §1, §2

Assay [9] concerns the target T10, LexA (GSG)2eDHFR / B42 (GSG)rGR2 (UniProt P06536+P0ABQ4, C656G/F620S).
T10 construct: rat Glucocorticoid Receptor (aa 524-795) with point mutations; expressed in transfected cells; host or cells: S. cerevisiae FY250
T10 sequence (P0ABQ4 1-159): T1 sequence (P0ABQ4 1-159)
T10 sequence (P06536 524-795 F620S/C656G limits assumed): T1 sequence (P06536 524-795 F620S/C656G limits assumed)
Description: β-galactosidase activity assay, strain V501Y.
Excerpt: as §1, §2

On to `C[C@@H]1C[C@H]2C3CCC4=CC(=O)C=C[C@]4(C)[C@@]3(F)[C@@H](O)C[C@]2(C)[C@@]1(O)C(=O)NCCSCCCCCCCCCCSCC[C@H](NC(=O)c1ccc(N(C)Cc2cnc3nc(N)nc(N)c3n2)cc1)C(=O)O` (stereo partly shown) [D10M], for which the B-gal activity is 9398 β-galactosidase units in assay [1]; 308 β-galactosidase units in assay [2]; 497 β-galactosidase units in assay [3]; 6 β-galactosidase units in [4]; 5 β-galactosidase units in [5]; −60 β-galactosidase units in assay [6]. Further, the B-gal activity on LexA eDHFR / B42 rGR2 is 5812 β-galactosidase units; in assay [7] it was 1132 β-galactosidase units; in assay [8], 2926 β-galactosidase units; in assay [9] it was 2286 β-galactosidase units.
